Patent publication US9266883B2, “Ring-fused bicyclic pyridyl derivatives as FGFR4 inhibitors” (Novartis AG, priority 2013, dated 2016)
Where “and” joins values, the source holds several entries; their conditions need not be identical. Equal entries are not always repeated. Where two headings read alike, the source gives them in different places.

What was measured:
[1] = system: HuH-7 hepatocellular carcinoma cells; assay: CellTiter Glo (CTG) Assay; settings: Homo sapiens, Huh-7, 72 h, read-out: HUH7 proliferation (nM) CTG
[2] = target: FGFR4 (GST-FGFR4(388-802)) (Homo sapiens (Human), UniProt P22455); assay: In-vitro biochemical kinase assay for FGFR4 (Caliper microfluidic mobility shift)
FGFR4 (GST-FGFR4(388-802)), sequence (P22455 388-802): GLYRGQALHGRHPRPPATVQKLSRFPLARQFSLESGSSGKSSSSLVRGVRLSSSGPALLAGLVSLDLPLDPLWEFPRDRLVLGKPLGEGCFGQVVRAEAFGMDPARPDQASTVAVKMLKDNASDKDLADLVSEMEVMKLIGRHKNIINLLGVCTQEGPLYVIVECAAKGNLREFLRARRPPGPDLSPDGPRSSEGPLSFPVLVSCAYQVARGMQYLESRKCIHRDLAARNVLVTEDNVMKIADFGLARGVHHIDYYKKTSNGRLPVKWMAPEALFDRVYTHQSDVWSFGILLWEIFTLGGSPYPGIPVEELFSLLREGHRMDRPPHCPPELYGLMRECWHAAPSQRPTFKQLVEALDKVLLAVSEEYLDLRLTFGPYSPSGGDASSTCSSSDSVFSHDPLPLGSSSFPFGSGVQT

Tel-FGFR4 = Tel-FGFR4 (Homo sapiens (Human), UniProt P22455); assay: In vitro cellular kinase assay for FGFR4 (BaF3-Tel-FGFR4 cells, MSD capture ELISA of tyrosine phosphorylation); format: cell-based
Tel-FGFR4, sequence (P22455 other isoform, or with tags, fused parts or gaps): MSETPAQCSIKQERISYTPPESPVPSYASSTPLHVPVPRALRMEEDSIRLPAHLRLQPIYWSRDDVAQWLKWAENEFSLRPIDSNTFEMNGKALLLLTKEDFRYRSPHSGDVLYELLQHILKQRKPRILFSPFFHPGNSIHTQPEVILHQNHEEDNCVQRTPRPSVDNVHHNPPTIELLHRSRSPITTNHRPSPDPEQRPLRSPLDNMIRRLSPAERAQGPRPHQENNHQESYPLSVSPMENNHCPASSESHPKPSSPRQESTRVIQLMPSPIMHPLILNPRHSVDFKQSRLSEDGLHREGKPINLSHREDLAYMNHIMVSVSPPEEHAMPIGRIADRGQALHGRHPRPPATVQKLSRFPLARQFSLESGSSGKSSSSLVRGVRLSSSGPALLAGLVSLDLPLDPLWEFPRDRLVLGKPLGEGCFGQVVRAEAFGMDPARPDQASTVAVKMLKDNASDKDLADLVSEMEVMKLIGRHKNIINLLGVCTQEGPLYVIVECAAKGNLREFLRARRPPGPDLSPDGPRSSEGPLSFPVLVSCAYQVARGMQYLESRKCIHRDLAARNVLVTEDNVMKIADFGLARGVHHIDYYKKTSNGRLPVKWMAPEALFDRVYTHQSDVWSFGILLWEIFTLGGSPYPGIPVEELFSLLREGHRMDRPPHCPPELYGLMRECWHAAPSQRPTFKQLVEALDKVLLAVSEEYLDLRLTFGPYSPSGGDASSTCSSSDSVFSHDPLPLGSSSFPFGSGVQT

[3] = read-out: Biochemical FGFR4 IC50
[4] = BaF3-Tel-FGFR4 cells, 1 hour incubation, read-out: Cellular BaF3 FGFR4 IC50
[5] = biochemical FGFR4 assay, read-out: Biochemical IC50
[6] = Cellular BaF3 FGFR4 assay, read-out: Cellular IC50

SMILES: COCCNc1cc(NC(=O)N2CCCc3cc(CN4C[C@@H](C)N[C@@H](C)C4)c(C=O)nc32)ncc1C#N [Example 242, N-(5-cyano-4-((2-methoxyethyl)amino)pyridin-2-yl)-6-(((3R,5S)-3,5-dimethylpiperazin-1-yl)methyl)-7-formyl-3,4-dihydro-1,8-naphthyridine-1(2H)-carboxamide]
- IC50 [1]: 1780 nM
- IC50 [2, 3]: 2.6 nM
- IC50 (Tel-FGFR4; [4]): 27 nM

SMILES: CC(C)Oc1cc(NC(=O)N2CCCc3cc(CN(C)C(=O)CN(C)C)c(C=O)nc32)ncc1C#N [Example 145, N-(5-cyano-4-isopropoxypyridin-2-yl)-6-((2-(dimethylamino)-N-methylacetamido)methyl)-7-formyl-3,4-dihydro-1,8-naphthyridine-1(2H)-carboxamide]
- IC50 [1]: 154 nM
- IC50 [2, 3]: 0.4 nM
- IC50 (Tel-FGFR4; [4]): 15 nM

SMILES: COCCNc1cc(NC(=O)N2CCCc3cc(C(C)N(C)C(C)=O)c(C=O)nc32)ncc1C#N (racemic) [Example 135, N-(5-cyano-4-((2-methoxyethyl)amino)pyridin-2-yl)-7-formyl-6-(1-(N-methylacetamido)ethyl)-3,4-dihydro-1,8-naphthyridine-1(2H)-carboxamide]
- IC50 [1]: 2850 nM

SMILES: N#Cc1cnc(NC(=O)N2CCCc3cc(CO)c(C=O)nc32)cc1N[C@@H]1[C@H]2CC[C@H](C2)[C@@H]1CO (racemic) [Example 65, N-(5-cyano-4-(((1S*,2R*,3S*,4R*)-3-(hydroxymethyl)bicyclo[2.2.1]heptan-2-yl)amino)pyridin-2-yl)-7-formyl-6-(hydroxymethyl)-3,4-dihydro-1,8-naphthyridine-1(2H)-carboxamide]
- IC50 [1]: 65 nM
- IC50 [2, 3]: 0.8 nM
- IC50 (Tel-FGFR4; [4]): 14.6 nM

SMILES: COCCOc1cc(NC(=O)N2c3nc(C=O)c(CN4CCN(C)CC4=O)cc3CC[C@@H]2C)ncc1C#N [Example 226, (S)-N-(5-cyano-4-(2-methoxyethoxyl)pyridin-2-yl)-7-formyl-2-methyl-6-((4-methyl-2-oxopiperazin-1-yl)methyl)-3,4-dihydro-1,8-naphthyridine-1(2H)-carboxamide]
- IC50 [1]: 134 nM

SMILES: COC[C@@H](Oc1cc(NC(=O)N2CCCc3cc(C(F)F)c(C=O)nc32)ncc1C#N)C(F)(F)F [Example 173, (R)-N-(5-cyano-4-((1,1,1-trifluoro-3-methoxypropan-2-yl)oxy)pyridin-2-yl)-6-(difluoromethyl)-7-formyl-3,4-dihydro-1,8-naphthyridine-1(2H)-carboxamide]
- IC50 [1]: 1360 nM
- IC50 [2, 3]: 33 nM
- IC50 (Tel-FGFR4; [4]): 142 nM

SMILES: COCCNc1cc(NC(=O)N2CCCc3cc(CN4C(=O)COC[C@@H]4C)c(C=O)nc32)ncc1C#N [Example 120, (S)-N-(5-cyano-4-((2-methoxyethyl)amino)pyridin-2-yl)-7-formyl-6-((3-methyl-5-oxomorpholino)methyl)-3,4-dihydro-1,8-naphthyridine-1(2H)-carboxamide]
- IC50 [1]: 160 nM

SMILES: COCCNc1cc(NC(=O)N2CCCc3cc(CN4CCCC45COC5)c(C=O)nc32)ncc1C#N [Example 193, 6-(2-oxa-5-azaspiro[3.4]octan-5-ylmethyl)-N-(5-cyano-4-((2-methoxyethyl)amino)pyridin-2-yl)-7-formyl-3,4-dihydro-1,8-naphthyridine-1(2H)-carboxamide]
- IC50 [1]: 2780 nM

SMILES: N#Cc1cnc(NC(=O)N2CCCc3ccc(C=O)nc32)cc1OCC1CCCCO1 (racemic) [Example 36, N-(5-cyano-4-((tetrahydro-2H-pyran-2-yl)methoxy)pyridin-2-yl)-7-formyl-3,4-dihydro-1,8-naphthyridine-1(2H)-carboxamide]
- IC50 [1]: > 3000 nM

SMILES: CC(C)Oc1cc(NC(=O)N2c3nc(C=O)c(CN4CCN(C)CC4=O)cc3CC[C@@H]2C)ncc1C#N [Example 227, (S)-N-(5-cyano-4-isopropoxypyridin-2-yl)-7-formyl-2-methyl-6-((4-methyl-2-oxopiperazin-1-yl)methyl)-3,4-dihydro-1,8-naphthyridine-1(2H)-carboxamide]
- IC50 [1]: 104 nM

SMILES: CN1CCCC(COc2cc(NC(=O)N3CCCc4cc(CO)c(C=O)nc43)ncc2C#N)C1 (racemic) [Example 73, N-(5-cyano-4-((1-methylpiperidin-3-yl)methoxy)pyridin-2-yl)-7-formyl-6-(hydroxymethyl)-3,4-dihydro-1,8-naphthyridine-1(2H)-carboxamide]
- IC50 [1]: 502 nM

SMILES: COCCNc1cc(NC(=O)N2CCCc3cc(-c4cccnc4)c(C=O)nc32)ncc1C#N [Example 256, N-(5-cyano-4-((2-methoxyethyl)amino)pyridin-2-yl)-7-formyl-6-(pyridin-3-yl)-3,4-dihydro-1,8-naphthyridine-1(2H)-carboxamide]
- IC50 [1]: 1360 nM

SMILES: COCCNc1cc(NC(=O)N2CCCc3cc(CN4CCN(C)C(C)(C)C4=O)c(C=O)nc32)ncc1C#N [Example 245, N-(5-cyano-4-((2-methoxyethyl)amino)pyridin-2-yl)-7-formyl-6-((3,3,4-trimethyl-2-oxopiperazin-1-yl)methyl)-3,4-dihydro-1,8-naphthyridine-1(2H)-carboxamide]
- IC50 [1]: 103 nM
- IC50 (Tel-FGFR4; [4]): 11.5 nM

SMILES: CN1CCN(Cc2cc3c(nc2C=O)N(C(=O)Nc2cc(NCCOC(C)(C)C)c(C#N)cn2)CCC3)C(=O)C1 [Example 196, N-(4-((2-(tert-butoxy)ethyl)amino)-5-cyanopyridin-2-yl)-7-formyl-6-((4-methyl-2-oxopiperazin-1-yl)methyl)-3,4-dihydro-1,8-naphthyridine-1(2H)-carboxamide]
- IC50 [1]: 150 nM
- IC50 (Tel-FGFR4; [4]): 18 nM

SMILES: CC(=O)N(C)Cc1cc2c(nc1C=O)N(C(=O)Nc1cc(NCC3CN(C)CCO3)c(C#N)cn1)CCC2 (stereo not shown) [N-(5-cyano-4-(((4-methylmorpholin-2-yl)methyl)amino)pyridin-2-yl)-7-formyl-6-((N-methylacetamido)methyl)-3,4-dihydro-1,8-naphthyridine-1(2H)-carboxamide]
- IC50 [2, 5]: 2.6 nM
- IC50 (Tel-FGFR4; [6]): 21 nM

SMILES: O=Cc1nc2c(cc1CO)CCCN2C(=O)Nc1ccc(F)cn1 [Example 76, N-(5-fluoropyridin-2-yl)-7-formyl-6-(hydroxymethyl)-3,4-dihydro-1,8-naphthyridine-1(2H)-carboxamide]
- IC50 [2, 3]: 620 nM
- IC50 (Tel-FGFR4; [4]): 1610 nM and > 3000 nM

SMILES: CC(C)Nc1cc(NC(=O)N2CCCc3cc(CO)c(C=O)nc32)ncc1C#N [N-(5-cyano-4-(isopropylamino)pyridin-2-yl)-7-formyl-6-(hydroxymethyl)-3,4-dihydro-1,8-naphthyridine-1(2H)-carboxamide]
- IC50 [2, 5]: 2 nM
- IC50 (Tel-FGFR4; [6]): 8.6 nM

SMILES: COC[C@H](C)Nc1cc(NC(=O)N2CCCc3cc(CN4CCOCC4=O)c(C=O)nc32)ncc1C#N [(S)-N-(5-cyano-4-((1-methoxypropan-2-yl)amino)pyridin-2-yl)-7-formyl-6-((3-oxomorpholino)methyl)-3,4-dihydro-1,8-naphthyridine-1(2H)-carboxamide]
- IC50 [2, 5]: 2.5 nM
- IC50 (Tel-FGFR4; [6]): 5.7 nM

SMILES: CC(C)Oc1cc(NC(=O)N2CCCc3cc(CN4CCN(C)CC4=O)c(C=O)nc32)ncc1C#N [Example 92, N-(5-cyano-4-isopropoxypyridin-2-yl)-7-formyl-6-((4-methyl-2-oxopiperazin-1-yl)methyl)-3,4-dihydro-1,8-naphthyridine-1(2H)-carboxamide]
- IC50 [2, 3]: 0.7 nM
- IC50 (Tel-FGFR4; [4]): 3.3 nM

SMILES: N#Cc1cnc(NC(=O)N2CCCc3cc(CO)c(C=O)nc32)nc1O[C@H]1CCOC1 [Example 70, (S)-N-(5-cyano-4-((tetrahydrofuran-3-yl)oxy)pyrimidin-2-yl)-7-formyl-6-(hydroxymethyl)-3,4-dihydro-1,8-naphthyridine-1(2H)-carboxamide]
- IC50 [2, 3]: 27 nM
- IC50 (Tel-FGFR4; [4]): 43 nM

SMILES: N#Cc1cnc(NC(=O)N2CCCc3cc(C(F)F)c(C=O)nc32)cc1Cl [N-(4-chloro-5-cyanopyridin-2-yl)-6-(difluoromethyl)-7-formyl-3,4-dihydro-1,8-naphthyridine-1(2H)-carboxamide]
- IC50 [2, 5]: 57 nM
- IC50 (Tel-FGFR4; [6]): 223 nM

SMILES: CC(C)Oc1cc(NC(=O)N2CCCc3cc(CN4C[C@H](N(C)C)CC4=O)c(C=O)nc32)ncc1C#N [(R)-N-(5-cyano-4-isopropoxypyridin-2-yl)-6-((4-(dimethylamino)-2-oxopyrrolidin-1-yl)methyl)-7-formyl-3,4-dihydro-1,8-naphthyridine-1(2H)-carboxamide]
- IC50 [2, 5]: 0.3 nM
- IC50 (Tel-FGFR4; [6]): 6.7 nM

SMILES: CC(C)Oc1cc(NC(=O)N2CCCc3cc(CN(C)C(=O)C(C)C)c(C=O)nc32)ncc1C#N [N-(5-cyano-4-isopropoxypyridin-2-yl)-7-formyl-6-((N-methylisobutyramido)methyl)-3,4-dihydro-1,8-naphthyridine-1(2H)-carboxamide]
- IC50 [2, 5]: 1.2 nM
- IC50 (Tel-FGFR4; [6]): 12.5 nM

SMILES: CC(C)Oc1cc(NC(=O)N2c3nc(C=O)c(Br)cc3CC[C@H]2C)ncc1C#N [(R)-6-bromo-N-(5-cyano-4-isopropoxypyridin-2-yl)-7-formyl-2-methyl-3,4-dihydro-1,8-naphthyridine-1(2H)-carboxamide]
- IC50 [2, 5]: 21 nM
- IC50 (Tel-FGFR4; [6]): 168 nM

SMILES: N#Cc1cnc(NC(=O)N2CCCc3cc(CO)c(C=O)nc32)cc1OCC(F)(F)F [Example 89, N-(5-cyano-4-(2,2,2-trifluoroethoxyl)pyridin-2-yl)-7-formyl-6-(hydroxymethyl)-3,4-dihydro-1,8-naphthyridine-1(2H)-carboxamide]
- IC50 [2, 3]: 8.9 nM
- IC50 (Tel-FGFR4; [4]): 14.5 nM

SMILES: COC[C@H](C)Nc1cc(NC(=O)N2CCCc3cc(CN4CCCC4=O)c(C=O)nc32)ncc1C#N [(S)-N-(5-cyano-4-((1-methoxypropan-2-yl)amino)pyridin-2-yl)-7-formyl-6-((2-oxopyrrolidin-1-yl)methyl)-3,4-dihydro-1,8-naphthyridine-1(2H)-carboxamide]
- IC50 [2, 5]: 1.9 nM
- IC50 (Tel-FGFR4; [6]): 4.9 nM

SMILES: COCCNc1cc(NC(=O)N2CCCc3cc(CN4C(=O)COC[C@H]4C)c(C=O)nc32)ncc1C#N [Example 118, (R)-N-(5-cyano-4-((2-methoxyethyl)amino)pyridin-2-yl)-7-formyl-6-((3-methyl-5-oxomorpholino)methyl)-3,4-dihydro-1,8-naphthyridine-1(2H)-carboxamide]
- IC50 [1]: 101 nM
